Assay results: PubChem BioAssay AID330 (DTP/NCI, 2004)
Where “and” joins values, the source holds several entries; their conditions need not be identical. Equal entries are not always repeated. Toxic doses and inconclusive results are not listed. Rule for the calls: active = survival T/C of 150% or more; inactive = T/C below 125% in these data. Square brackets hold non-standard residues; d marks the D form. Peptide text beside a SMILES is read from it. * marks the point of attachment. ξ: configuration not given here. Cbz = O=C(OCc1ccccc1)*; ξT = CC(O)C(N)C(=O)O

System: P388 leukemia ip, CD2F1 mice, survival T/C
Test: NCI In Vivo Anticancer Drug Screen. Data for tumor model P388 Leukemia (intraperitoneal) in CD2F1 (CDF1) mice
Conditions: endpoint: median survival time, higher = longer survival
Summary of the method: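 Mice carrying the transplanted tumor received test compound or vehicle. Survival was recorded in each group, and the value is the treated-group measurement divided by that of the vehicle-treated control group.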

[1] = dose: 50.0 mg/kg/injection, schedule: Q01DX009 (ip), vehicle: saline with Tween-80
[2] = dose: 100.0 mg/kg/injection, schedule: Q01DX009 (ip), vehicle: saline with Tween-80
[3] = dose: 200.0 mg/kg/injection, schedule: Q01DX009 (ip), vehicle: saline with Tween-80
[4] = dose: 100.0 mg/kg/injection, schedule: Q04DX002 (ip), vehicle: saline with Tween-80
[5] = dose: 200.0 mg/kg/injection, schedule: Q04DX002 (ip), vehicle: saline with Tween-80
[6] = dose: 400.0 mg/kg/injection, schedule: Q04DX002 (ip), vehicle: saline with Tween-80
[7] = dose: 60.0 mg/kg/injection, schedule: Q01DX005 (ip), vehicle: saline with Tween-80
[8] = dose: 120.0 mg/kg/injection, schedule: Q01DX005 (ip), vehicle: saline with Tween-80
[9] = dose: 240.0 mg/kg/injection, schedule: Q01DX005 (ip), vehicle: saline with Tween-80
[10] = dose: 60.0 mg/kg/injection, schedule: Q01DX005 (ip), vehicle: Klucel (hydroxypropylcellulose) (HPC)
[11] = dose: 120.0 mg/kg/injection, schedule: Q01DX005 (ip), vehicle: Klucel (hydroxypropylcellulose) (HPC)
[12] = dose: 240.0 mg/kg/injection, schedule: Q01DX005 (ip), vehicle: Klucel (hydroxypropylcellulose) (HPC)
[13] = dose: 12.5 mg/kg/injection, schedule: Q01DX009 (ip), vehicle: saline with Tween-80
[14] = dose: 25.0 mg/kg/injection, schedule: Q01DX009 (ip), vehicle: saline with Tween-80
[15] = dose: 50.0 mg/kg/injection, schedule: Q01DX005 (ip), vehicle: saline with Tween-80
[16] = dose: 100.0 mg/kg/injection, schedule: Q01DX005 (ip), vehicle: saline with Tween-80
[17] = dose: 50.0 mg/kg/injection, schedule: Q01DX005 (ip), vehicle: Klucel (hydroxypropylcellulose) (HPC)
[18] = dose: 100.0 mg/kg/injection, schedule: Q01DX005 (ip), vehicle: Klucel (hydroxypropylcellulose) (HPC)
[19] = dose: 200.0 mg/kg/injection, schedule: Q01DX005 (ip), vehicle: Klucel (hydroxypropylcellulose) (HPC)

Measured: T/C

Cc1ccc(OP(=O)(Oc2ccc(C)cc2)Oc2ccc(C)cc2)cc1.Cc1ccc(OP(=O)(Oc2ccc(C)cc2)Oc2ccc(C)cc2)cc1.Cc1ccc(OP(=O)(Oc2ccc(C)cc2)Oc2ccc(C)cc2)cc1.Cc1ccc(OP(=O)(Oc2ccc(C)cc2)Oc2ccc(C)cc2)cc1.[Fe+2].[O-][Cl+3]([O-])([O-])O
inactive: dose: 50.0 mg/kg/injection, schedule: Q01DX001 (ip), vehicle: Klucel (hydroxypropylcellulose) (HPC) 99 % of control | dose: 100.0 mg/kg/injection, schedule: Q01DX001 (ip), vehicle: Klucel (hydroxypropylcellulose) (HPC) 96 % of control | dose: 200.0 mg/kg/injection, schedule: Q01DX001 (ip), vehicle: Klucel (hydroxypropylcellulose) (HPC) 99 % of control

CCCCCCCCCSCC
inactive: [1] 100 % of control | [2] 109 % of control | dose: 100.0 mg/kg/injection, schedule: Q04DX003 (ip), vehicle: saline with Tween-80 109 % of control | [3] 109 % of control | dose: 200.0 mg/kg/injection, schedule: Q04DX003 (ip), vehicle: saline with Tween-80 100 % of control | dose: 400.0 mg/kg/injection, schedule: Q04DX003 (ip), vehicle: saline with Tween-80 86 % of control

C=C(Cl)CNc1ccccc1C(=O)O
inactive: dose: 25.0 mg/kg/injection, schedule: Q04DX003 (ip), vehicle: Klucel (hydroxypropylcellulose) (HPC) 109 % of control and 97 % of control | dose: 50.0 mg/kg/injection, schedule: Q04DX003 (ip), vehicle: Klucel (hydroxypropylcellulose) (HPC) 109 % of control and 110 % of control | dose: 100.0 mg/kg/injection, schedule: Q04DX003 (ip), vehicle: Klucel (hydroxypropylcellulose) (HPC) 103 % of control and 95 % of control | dose: 200.0 mg/kg/injection, schedule: Q04DX003 (ip), vehicle: Klucel (hydroxypropylcellulose) (HPC) 94 % of control

CN=C(N)N/N=C(\c1ccccc1)c1ccc(Cl)c([N+](=O)[O-])c1
inactive: dose: 12.5 mg/kg/injection, schedule: Q04DX002 (ip), vehicle: saline with Tween-80 105 % of control | dose: 25.0 mg/kg/injection, schedule: Q04DX002 (ip), vehicle: saline with Tween-80 105 % of control | dose: 50.0 mg/kg/injection, schedule: Q04DX002 (ip), vehicle: saline with Tween-80 99 % of control | [4] 97 % of control | [5] 98 % of control | [6] 113 % of control

CC1(C)CC(=O)C=C(n2ccccc2=O)C1
inactive: [7] 97 % of control | [8] 102 % of control | [9] 97 % of control

CC(=O)Nc1ccc(S(=O)(=O)N/N=C/c2cc([N+](=O)[O-])cc([N+](=O)[O-])c2O)cc1
inactive: [7] 106 % of control | [8] 104 % of control | [9] 104 % of control

O=[N+]([O-])c1ccc(-c2ncc(-c3ccc(Br)cc3)o2)cc1
inactive: [10] 108 % of control | [11] 107 % of control | [12] 110 % of control

O=Cc1cccc(S(=O)(=O)O)c1
inactive: dose: 60.0 mg/kg/injection, schedule: Q01DX005 (ip), vehicle: saline 100 % of control | dose: 120.0 mg/kg/injection, schedule: Q01DX005 (ip), vehicle: saline 94 % of control | dose: 240.0 mg/kg/injection, schedule: Q01DX005 (ip), vehicle: saline 102 % of control

O=C(CBr)C(=O)OCc1ccccc1
inactive: dose: 0.78 mg/kg/injection, schedule: Q01DX009 (ip), vehicle: water 100 % of control | dose: 1.56 mg/kg/injection, schedule: Q01DX009 (ip), vehicle: water 99 % of control | dose: 3.13 mg/kg/injection, schedule: Q01DX009 (ip), vehicle: water 94 % of control | dose: 6.25 mg/kg/injection, schedule: Q01DX009 (ip), vehicle: water 102 % of control

CC1([N+](=O)[O-])C(=O)C2(N3CCCC3)CCCC2C1c1ccccc1 (stereo not given)
inactive: [10] 99 % of control | [11] 91 % of control | [12] 90 % of control

O=C(c1ccccc1)c1cccs1
inactive: dose: 22.0 mg/kg/injection, schedule: Q01DX009 (ip), vehicle: saline with Tween-80 113 % of control | dose: 44.0 mg/kg/injection, schedule: Q01DX009 (ip), vehicle: saline with Tween-80 104 % of control | dose: 88.0 mg/kg/injection, schedule: Q01DX009 (ip), vehicle: saline with Tween-80 109 % of control

CC1(C)C2CC=C(C[P+](c3ccccc3)(c3ccccc3)c3ccccc3)C1C2 (stereo not given)
inactive: dose: 1.25 mg/kg/injection, schedule: Q01DX009 (ip), vehicle: saline with Tween-80 119 % of control | dose: 2.5 mg/kg/injection, schedule: Q01DX009 (ip), vehicle: saline with Tween-80 119 % of control

C=CC[N+](CC=C)(CC=C)CC[N+](CC=C)(CC=C)CC=C
inactive: [13] 97 % of control | [14] 101 % of control | [1] 105 % of control

Cc1ccc(S(=O)(=O)CC(=O)CC(=O)C(=O)Nc2cc(C)ccc2C)cc1
inactive: [7] 105 % of control | [8] 108 % of control | [9] 106 % of control

CC(CN)OCc1ccccc1 (stereo not given)
inactive: dose: 12.5 mg/kg/injection, schedule: Q04DX003 (ip), vehicle: saline 95 % of control | dose: 25.0 mg/kg/injection, schedule: Q04DX003 (ip), vehicle: saline 100 % of control | dose: 50.0 mg/kg/injection, schedule: Q04DX003 (ip), vehicle: saline 100 % of control

CC1(C)O[C@@H]2C[C@H]3[C@@H]4CCC5=CC(=O)CC[C@]5(C)[C@@]4(F)[C@@H](O)C[C@]3(C)[C@]2(C(=O)CO)O1
inactive: [13] 109 % of control | [14] 86 % of control

NC(=O)N/N=C1/CCC(OCc2ccccc2)CC1CC(=O)O (stereo not given)
inactive: [15] 102 % of control | [16] 105 % of control | dose: 200.0 mg/kg/injection, schedule: Q01DX005 (ip), vehicle: saline with Tween-80 96 % of control

CC(O)C(NC(=O)CNC(=O)CNC(=O)OCc1ccccc1)C(=O)O (stereo not drawn) (Cbz-Gly-Gly-[ξT]-OH)
inactive: [17] 96 % of control | [18] 98 % of control | [19] 95 % of control

COc1cc2c(cc1OC)-c1ccccc1COC2=O
inactive: [4] 102 % of control | [5] 93 % of control | [6] 92 % of control

Cn1c2c(c3nc(N)nc(N)c3c1=O)CCc1ccccc1-2
inactive: dose: 25.0 mg/kg/injection, schedule: Q01DX005 (ip), vehicle: distilled water + alcohol 102 % of control | dose: 50.0 mg/kg/injection, schedule: Q01DX005 (ip), vehicle: distilled water + alcohol 96 % of control | dose: 100.0 mg/kg/injection, schedule: Q01DX005 (ip), vehicle: distilled water + alcohol 94 % of control | dose: 200.0 mg/kg/injection, schedule: Q01DX005 (ip), vehicle: distilled water + alcohol 103 % of control

COC(=O)c1c(/C(=N/Nc2ccc([N+](=O)[O-])cc2)[N+](=O)[O-])ssc1=N
inactive: [17] 103 % of control | [18] 97 % of control | [19] 103 % of control

N#CCCCCCBr
inactive: [1] 98 % of control | [2] 100 % of control | [3] 100 % of control

CN(C)C1C2(C)CCC(C2)C1(C)C (stereo not given)
inactive: [15] 103 % of control | [16] 102 % of control
